ChEMBL document CHEMBL5608176, “Binding sites and design strategies for small molecule GLP-1R agonists” (Eur J Med Chem, 2024)

Key:
[1] = biological target: Voltage-gated inwardly rectifying potassium channel KCNH2 (Homo sapiens, UniProt Q12809); assay: Inhibition of hERG potassium channel by patch clamp assay; format: toxicity
[2] = biological target: Glucagon-like peptide 1 receptor (Homo sapiens, UniProt P43220); assay: Agonist activity at human GLP-1 expressed in HEK293 cells assessed as […] in intracellular cAMP accumulation incubated for 60 mins by HTRF assay; format: functional, cell-based
Glucagon-like peptide 1 receptor, sequence (P43220 whole entry): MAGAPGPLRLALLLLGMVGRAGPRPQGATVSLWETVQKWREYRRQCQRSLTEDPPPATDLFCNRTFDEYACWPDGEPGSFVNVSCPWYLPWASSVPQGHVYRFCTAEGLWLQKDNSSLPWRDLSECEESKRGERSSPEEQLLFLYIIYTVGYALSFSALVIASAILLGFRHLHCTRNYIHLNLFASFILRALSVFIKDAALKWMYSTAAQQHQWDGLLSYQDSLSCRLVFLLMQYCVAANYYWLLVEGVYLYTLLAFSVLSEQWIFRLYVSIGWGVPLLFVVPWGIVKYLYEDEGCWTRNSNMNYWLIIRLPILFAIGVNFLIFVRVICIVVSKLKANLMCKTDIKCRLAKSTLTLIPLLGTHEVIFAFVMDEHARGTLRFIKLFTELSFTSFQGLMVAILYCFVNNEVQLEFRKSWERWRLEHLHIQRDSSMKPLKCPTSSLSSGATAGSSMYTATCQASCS

Voltage-gated inwardly rectifying potassium channel KCNH2, sequence (Q12809 whole entry): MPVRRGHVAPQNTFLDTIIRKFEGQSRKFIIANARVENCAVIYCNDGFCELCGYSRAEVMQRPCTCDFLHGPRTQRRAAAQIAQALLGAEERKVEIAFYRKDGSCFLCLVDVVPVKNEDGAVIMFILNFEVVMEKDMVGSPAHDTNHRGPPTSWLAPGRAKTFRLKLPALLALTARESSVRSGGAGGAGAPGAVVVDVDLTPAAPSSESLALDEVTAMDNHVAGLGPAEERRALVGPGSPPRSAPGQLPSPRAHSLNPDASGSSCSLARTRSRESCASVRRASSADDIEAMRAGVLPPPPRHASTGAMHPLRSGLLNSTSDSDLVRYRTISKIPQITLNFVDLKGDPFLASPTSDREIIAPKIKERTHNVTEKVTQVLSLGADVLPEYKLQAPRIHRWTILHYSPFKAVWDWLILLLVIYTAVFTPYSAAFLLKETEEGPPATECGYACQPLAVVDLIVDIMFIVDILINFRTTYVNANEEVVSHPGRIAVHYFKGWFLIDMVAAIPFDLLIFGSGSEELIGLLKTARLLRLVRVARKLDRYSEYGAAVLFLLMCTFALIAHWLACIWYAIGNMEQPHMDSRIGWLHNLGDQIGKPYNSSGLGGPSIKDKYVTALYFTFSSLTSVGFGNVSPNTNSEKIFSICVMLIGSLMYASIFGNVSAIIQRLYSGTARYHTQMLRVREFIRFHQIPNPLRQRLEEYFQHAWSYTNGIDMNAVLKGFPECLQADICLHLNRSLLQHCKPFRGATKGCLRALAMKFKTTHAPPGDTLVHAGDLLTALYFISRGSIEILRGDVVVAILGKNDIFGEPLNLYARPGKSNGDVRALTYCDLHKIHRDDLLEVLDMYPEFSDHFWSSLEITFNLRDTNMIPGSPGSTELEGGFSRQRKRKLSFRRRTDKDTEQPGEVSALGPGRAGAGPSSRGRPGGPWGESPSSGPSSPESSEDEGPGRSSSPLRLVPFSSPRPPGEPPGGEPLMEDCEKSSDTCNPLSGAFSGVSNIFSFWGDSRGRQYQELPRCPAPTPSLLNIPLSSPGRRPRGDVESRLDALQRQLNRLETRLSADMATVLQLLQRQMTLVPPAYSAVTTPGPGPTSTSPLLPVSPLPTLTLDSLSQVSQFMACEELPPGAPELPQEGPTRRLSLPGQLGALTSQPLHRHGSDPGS

| EC50 [2] | SMILES | EC50 [1] |
| --- | --- | --- |
| – | Cn1c(CN2CCC(c3cccc(OCc4ccc(Cl)cc4F)n3)CC2)nc2ccncc21 | 77 nM |
| 2.7 nM | COc1nccc(-c2ccc3c(c2)cc(C(=O)N2CCc4nn(-c5cc(C)c(F)c(C)c5)c(-n5ccn(-c6ccc7c(cnn7C)c6F)c5=O)c4[C@@H]2C)n3[C@@]2(c3noc(=O)[nH]3)C[C@@H]2C)c1C | – |
| 2.1 nM | COCCn1ncc2c(F)c(-n3ccn(-c4c5c(nn4-c4cc(C)c(F)c(C)c4)CCN(C(=O)c4cc6cc([C@H]7CCOC(C)(C)C7)ccc6n4[C@@]4(c6noc(=O)[nH]6)C[C@@H]4C)[C@H]5C)c3=O)ccc21 | – |
